In US20100233194A1, “TREATMENT OF NEOVASCULAR OCULAR DISEASE STATES” (priority 2007, published 2010):

Tested on: VEGF-induced retinal vascular leakage
Test: VEGF-induced vascular leakage in a rabbit model of blood-retinal barrier breakdown (ocular fluorophotometry)
Conditions: for Inhibition of retinal vascular leakage: single intravitreal injection Day 0, 500 ng rhVEGF165 Day 5, fluorophotometry Day 7, rabbit

CC1(C)O[C@@H]2C[C@H]3[C@@H]4CCC5=CC(=O)C=C[C@]5(C)[C@@]4(F)[C@@H](O)C[C@]3(C)[C@]2(C(=O)CO)O1 [TA, triamcinolone acetonide]
Inhibition of retinal vascular leakage (TA 75 μg): 13% | Inhibition of retinal vascular leakage (TA 400 μg): 96% | inhibition of the VEGF-induced retinal vascular leakage (separate study, TA 75 μg alone): 10%
